Experimental data published in PubChem BioAssay (NCI).
Values joined by “and” are separate entries in the source; they are usually repeats but may differ in a detail not shown here. Equal values may be shown once.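 Method: 48-hour compound exposure of cells in 96-well plates, five concentrations, linear interpolation of endpoints. GI50 is the concentration that inhibits growth by half. TGI is the concentration that stops growth completely.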

What was measured:
Assay in all cases: DTP human tumour cell line panel, 48 h
PC-3 prostate = test system: PC-3 prostate
MOLT-4 leukemia = test system: MOLT-4 leukemia
U251 CNS = test system: U251 CNS
A549 NSCLC = test system: A549 NSCLC
HCT-15 colon = test system: HCT-15 colon
UACC-257 melanoma = test system: UACC-257 melanoma
HL-60(TB) leukemia = test system: HL-60(TB) leukemia
A498 renal = test system: A498 renal
OVCAR-5 ovarian = test system: OVCAR-5 ovarian
SK-OV-3 ovarian = test system: SK-OV-3 ovarian

Compound	TGI (PC-3 prostate) [µM]	TGI (MOLT-4 leukemia) [µM]	TGI (U251 CNS)	TGI (A549 NSCLC) [µM]	TGI (HCT-15 colon)	TGI (UACC-257 melanoma)	TGI (HL-60(TB) leukemia)	TGI (A498 renal)	TGI (OVCAR-5 ovarian) [µM]	GI50 (PC-3 prostate) [µM]	GI50 (MOLT-4 leukemia) [µM]	GI50 (U251 CNS) [µM]	GI50 (A549 NSCLC) [µM]	GI50 (HCT-15 colon)	GI50 (UACC-257 melanoma)	GI50 (SK-OV-3 ovarian) [µM]	TGI (SK-OV-3 ovarian) [µM]	GI50 (A498 renal) [µM]	GI50 (OVCAR-5 ovarian) [µM]	GI50 (HL-60(TB) leukemia) [µM]
COc1ccc(-c2cc(-c3cc(C)cc(Br)c3O)no2)cc1	33.5	> 100	33.5 µM	57	> 100 µM	> 100 µM	> 100 µM	13 µM	88.9	–	–	–	–	–	–	–	–	–	–	–
CCCCC(CC)COC(=O)C[N+](C)(C)CCOC(c1ccccc1)c1ccccc1 (stereo unspecified)	11.7	6.66	3.81 µM	38.9	31.2 µM	7.6 µM	–	15.2 µM	15.8	3.21	2.5	1.87	17.8	13.8 µM	2.56 µM	6.38	21.8	3.12	4.11	–
COc1cc(OC)c(C(=O)/C=C/c2cccc(C(F)(F)F)c2)c(OC)c1	6.05	3.75	2.1 µM	4.82	2.68 µM	7.89 µM	–	4.44 µM	7.04	1.64	0.873	1.01	1.48	0.942 µM	2.06 µM	3.03	9.37	1.4	2.28	–
CCOC(=O)C1CCN(S(=O)(=O)/N=C2/NC(=O)NC2=C(Cl)Cl)CC1	2.58	4.46	3.47 µM	17.7	3.56 µM	7.24 µM	4.34 µM	12.1 µM	14.7	0.621	1.88	1.9	4.82	1.82 µM	2.38 µM	9.94	21.7	2.65	3.6	1.74
CCc1nc2cc(F)c(/C=C/C(=O)NO)cc2c(=O)n1CCc1ccccc1	59.4	29.1	0.891 µM	2.67	18.6 µM	0.72 µM	> 100 µM	0.736 µM	17.6	0.526	0.353	0.277	0.335	0.36 µM	0.216 µM	0.263	0.787	0.149	0.402	0.415
C=C1C(=O)O[C@H]2[C@H]1CC/C(COC(=O)NCCCCNC(=O)OC/C1=C/CC[C@@]3(C)O[C@H]3[C@H]3OC(=O)C(=C)[C@@H]3CC1)=C\CC[C@@]1(C)O[C@@H]21	8.05	4.15	9.83 µM	23.1	20.8 µM	4.99 µM	1.08 µM	18.9 µM	3.69	2.55	1.47	2.94	8.01	5.61 µM	1.68 µM	12.7	25.3	6.36	1.75	0.256
COc1ccc(/C=C/c2c(C(=O)/C=C/c3ccccc3)c(C)nc3ccccc23)cc1	3.81	5.69	2.96 µM	–	3.77 µM	3.21 µM	5.79 µM	3.15 µM	3.65	1.66	1.33	1.61	–	1.38 µM	1.7 µM	3.13	9.54	1.7	1.91	2.3
CCCC(CCC)NCC(O)c1cc(-c2ccc(C(F)(F)F)cc2)nc(C(F)(F)F)c1 (stereo unspecified)	3.33	3.84	3.22 µM	3.28	3.53 µM	3.45 µM	3.97 µM	2.67 µM	2.95	1.75	1.89	1.74	1.79	1.77 µM	1.8 µM	1.75	3.22	1.35	1.55	2.11
COc1cc(Cc2nccc3cc(OC)c(OC)cc23)c(C(C)=O)cc1OC	–	> 750	300 µM and > 750 µM	> 750	300 µM and > 750 µM	116 µM and 144 µM	130 µM and > 750 µM	> 300 µM and 507 µM	> 750	–	> 750	–	> 750	195 µM and 249 µM	55 µM and 49 µM and 35.4 µM	–	254	204	204	> 750
COc1ccc(C(=O)c2cc(C)c(OC)c(C)c2)c(OC)c1O	> 100	> 100	> 100 µM	> 100	> 100 µM	> 100 µM	0.0876 µM	6.03 µM	> 100	0.0402	0.0448	0.0485	0.32	0.0214 µM	32.9 µM	0.228	> 100	1.84	4.9	0.0276
Cc1cc(C)c(NC(=O)c2sc3nc4c(cc3c2N)C(=O)CCC4)c(C)c1	> 100	> 100	> 100 µM	> 100	> 100 µM	> 95.9 µM	> 100 µM	> 51.5 µM	> 100	1.96	5.68	3.49	2.51	2.59 µM	10 µM	2.07	> 100	3.4	7.98	3.64
O=C(O)CNS(=O)(=O)c1ccc(NC(=O)c2ccc([N+](=O)[O-])cc2)cc1	–	> 100	> 100 µM	> 100	> 100 µM	> 100 µM	> 100 µM	> 100 µM	> 100	–	–	–	–	–	–	–	> 100	–	–	–
S=c1ssc(N2CCOCC2)c1Cl	> 100	> 100	28.3 µM	> 100	> 100 µM	> 100 µM	63.3 µM	–	> 100	40.2	31.8	15	> 100	23.6 µM	> 100 µM	28.1	> 100	–	> 100	24.4
